Measured values taken from the supplement of paper PMC10307832.

Experiments:
Experiment in all cases: relative viability (nuclei count vs DMSO), 5 days (fraction); higher = more cells survive
[1] = compound: O=C(/C=C/c1cccnc1)NCCCCC1CCN(C(=O)c2ccccc2)CC1 [Daporinad] + COc1cc2c(Oc3ccc(NC(=O)C4(C(=O)Nc5ccc(F)cc5)CC4)cc3F)ccnc2cc1OCCCN1CCOCC1 [Foretinib] (partner 0.25 µM)
How it was run: (§1)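 Cells from lung cancer lines were seeded into 1536-well plates and, one day later, dosed by pin tool. Treatments were either a single drug or a fixed dose of an anchor drug with five library-drug doses (not always all listed) in √10 steps. After 5 days, nuclei were stained in a one-step fixation (final 0.05% Triton X-100, 1% formaldehyde, 1 ug/ml Hoechst) and counted on 4× images, and relative viability is the treated-to-vehicle nuclei ratio, as the median of duplicate plates.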

[2] = compound: O=C(/C=C/c1cccnc1)NCCCCC1CCN(C(=O)c2ccccc2)CC1 [Daporinad] + CC(C)C[C@H](NC(=O)[C@H](Cc1ccccc1)NC(=O)c1cnccn1)B(O)O [Bortezomib] (partner 0.002 µM)
How it was run: as §1

[3] = compound: COc1cc(Nc2ncc(F)c(Nc3ccc4c(n3)NC(=O)C(C)(C)O4)n2)cc(OC)c1OC [R406] + Cc1cc(Nc2cc(N3CCN(C)CC3)nc(Sc3ccc(NC(=O)C4CC4)cc3)n2)n[nH]1 [Tozasertib] (partner 0.1 µM)
How it was run: as §1

[4] = compound: O=C(/C=C/c1cccnc1)NCCCCC1CCN(C(=O)c2ccccc2)CC1 [Daporinad] + C[C@]1(O)C[C@@H](c2nc(-c3ccc4ccc(-c5ccccc5)nc4c3)c3c(N)nccn32)C1 [Linsitinib] (partner 1 µM)
How it was run: as §1

Cell Line | relative viability ([1]; first compound 0.0005 µM) | relative viability ([1]; first compound 0.001581 µM) | relative viability ([1]; first compound 0.005 µM) | relative viability ([1]; first compound 0.01581 µM) | relative viability ([2]; first compound 0.0005 µM) | relative viability ([2]; first compound 0.001581 µM) | relative viability ([2]; first compound 0.005 µM) | relative viability ([2]; first compound 0.01581 µM) | relative viability ([3]; first compound 0.08 µM) | relative viability ([3]; first compound 0.253 µM) | relative viability ([3]; first compound 0.8 µM) | relative viability ([3]; first compound 2.53 µM) | relative viability ([3]; first compound 8 µM) | relative viability ([4]; first compound 0.0005 µM) | relative viability ([4]; first compound 0.001581 µM) | relative viability ([4]; first compound 0.005 µM) | relative viability ([4]; first compound 0.01581 µM)
NCI-H650 | 1.08 | 1.09 | 1.01 | 1.08 | 0.622 | 0.817 | 0.669 | 0.833 | 0.701 | 0.885 | 0.699 | 0.614 | 0.599 | 0.832 | 1.3 | 0.883 | 1.16
HCC-78 | 0.54 | – | 0.594 | 0.62 | 0.367 | 0.502 | 0.345 | 0.642 | 0.513 | 0.432 | 0.563 | 0.404 | 0.417 | 0.541 | 0.619 | 0.767 | 0.921
NCI-H1755 | 0.928 | 0.46 | 0.848 | 0.966 | 0.928 | 0.969 | 0.935 | 0.971 | 0.463 | 0.529 | 0.605 | 0.504 | 0.331 | 1.02 | 0.998 | 0.977 | 0.988
NCI-H3122 | 0.869 | 0.955 | 0.988 | 1.05 | 1.02 | 1.01 | 1.02 | 1.05 | 0.491 | 0.415 | 0.34 | 0.328 | 0.45 | 1.01 | 1.01 | 1.02 | 1
PC-3 [JPC-3] | 0.978 | 1.03 | 1.12 | 1.05 | 0.85 | 0.864 | 0.844 | 0.827 | 0.942 | 0.964 | 1.01 | 0.88 | 0.516 | 0.898 | 0.99 | 0.963 | 0.955
NCI-H2347 | 1.13 | 1.17 | 1.35 | 1.33 | 1.15 | 1.03 | 0.922 | 1.41 | 0.537 | 0.671 | 0.682 | 0.458 | 0.347 | 1.1 | 1.03 | 1 | 0.981
NCI-H2228 | 0.904 | 0.82 | 1.24 | 1.09 | 0.788 | 1.2 | 1.12 | 1.11 | 0.27 | 0.31 | 0.253 | 0.278 | 0.066 | 0.668 | 0.812 | 0.633 | 0.951
EKVX | 0.747 | 0.443 | 0.877 | 0.756 | 0.939 | 1.16 | 1.12 | 1.12 | 0.369 | 0.45 | 0.499 | 0.317 | 0.273 | 1.04 | 1.09 | 0.913 | 1.18
HOP-62 | 0.838 | 1.01 | 1.1 | 0.639 | – | 0.84 | 0.962 | 0.26 | 0.356 | 0.456 | 0.362 | 0.366 | 0.554 | – | 0.893 | 1.15 | 0.789
NCI-H2126 | 1.24 | 1.15 | 1.06 | 1.34 | 1.07 | 1.14 | 1.13 | 1.15 | 0.829 | 0.962 | 0.848 | 0.806 | 0.545 | 0.686 | 0.75 | 0.719 | 0.683
EPLC-272H | 0.695 | 0.925 | 0.845 | 1.11 | 0.86 | 1.04 | 0.98 | 1.14 | 0.206 | 0.242 | 0.403 | 0.177 | 0.111 | 1.11 | 1.32 | 1.31 | 1.4
RERF-LC-KJ | 0.787 | 0.809 | 0.911 | 0.886 | 0.996 | 1.05 | 1.45 | 1.26 | 0.463 | 0.653 | 0.447 | 0.481 | 0.402 | 0.883 | 0.893 | 1.01 | 0.949
NCI-H661 | 0.999 | 1.03 | 0.671 | 0.573 | 0.941 | 0.867 | 0.659 | 0.477 | 0.337 | 0.322 | 0.32 | 0.348 | 0.324 | 0.488 | 0.555 | 0.561 | 0.405
PC-14 | 0.985 | 1.06 | 1 | 1.01 | 0.845 | 0.891 | 0.988 | 0.533 | 0.57 | 0.681 | 0.623 | 0.546 | 0.603 | 1.03 | 1.04 | 0.884 | 0.905
COR-L 105 | 1.09 | 0.812 | 0.983 | 1.14 | 0.827 | 0.815 | 0.781 | 0.753 | 0.344 | 0.325 | 0.439 | 0.237 | 0.399 | 0.927 | 1.07 | 0.842 | 1.08
NCI-H2405 | 1.16 | 1.08 | 1.13 | 1.05 | 1 | 0.772 | 1.02 | 0.612 | 0.76 | 0.845 | 0.82 | 0.804 | 0.542 | 0.987 | 1.06 | 1.04 | 0.611

Cell Line | relative viability ([1]; first compound 0.0005 µM) | relative viability ([1]; first compound 0.001581 µM) | relative viability ([1]; first compound 0.005 µM) | relative viability ([1]; first compound 0.01581 µM) | relative viability ([2]; first compound 0.0005 µM) | relative viability ([2]; first compound 0.001581 µM) | relative viability ([2]; first compound 0.005 µM) | relative viability ([2]; first compound 0.01581 µM) | relative viability ([3]; first compound 0.08 µM) | relative viability ([3]; first compound 0.253 µM) | relative viability ([3]; first compound 0.8 µM) | relative viability ([3]; first compound 2.53 µM) | relative viability ([3]; first compound 8 µM) | relative viability ([4]; first compound 0.0005 µM) | relative viability ([4]; first compound 0.001581 µM) | relative viability ([4]; first compound 0.005 µM) | relative viability ([4]; first compound 0.01581 µM)
NCI-H727 | 1.01 | 0.908 | 0.899 | 0.691 | 0.813 | 0.798 | 0.838 | 0.858 | 0.586 | 0.566 | 0.694 | 0.594 | 0.433 | 0.282 | 0.337 | 0.244 | 0.261
NCI-H1915 | 1.16 | 1.07 | 1.17 | 1.08 | 0.987 | 1.05 | 0.961 | 0.883 | 0.459 | 0.474 | 0.521 | – | 0.463 | 1.13 | 1.17 | 1.09 | 1.11
CAL-12T | 1.09 | 0.938 | 0.758 | 0.272 | 0.925 | – | 0.817 | 0.392 | 0.312 | 0.366 | 0.324 | 0.255 | 0.194 | 0.697 | 0.936 | 0.778 | 0.24
NCI-H441 | 1.24 | 0.997 | 1.19 | 0.911 | – | 0.476 | 0.486 | 0.443 | 0.676 | 0.72 | 0.635 | 0.524 | 0.265 | 0.533 | 0.473 | 0.605 | 0.56
LXF-289 | 0.892 | 1.09 | 0.968 | 0.962 | 0.965 | 1.08 | 1.05 | 1.07 | 0.192 | 0.178 | 0.197 | 0.183 | 0.067 | 0.904 | 0.972 | 1 | 1.1
NCI-H520 | 0.815 | 0.384 | 0.324 | 0.181 | 0.624 | 0.686 | 0.223 | 0.151 | 0.499 | 0.469 | 0.45 | 0.347 | 0.219 | 0.87 | 0.445 | 0.177 | 0.149
NCI-H2009 | 1.16 | 1.24 | 1.23 | 0.897 | 0.887 | 1.09 | 1.06 | 0.846 | 0.816 | 0.848 | 0.716 | 0.627 | 0.311 | 1.25 | 1.21 | 1.2 | 0.735
201T | 1.08 | 1.14 | 1.02 | 1.16 | 1.08 | 1.11 | 1.07 | 1.11 | 1.02 | 1 | 0.986 | 0.939 | 0.523 | 0.998 | 0.973 | 1.04 | 1.02
NCI-H23 | 0.898 | 1.02 | 0.991 | 0.611 | 1.18 | 0.919 | 0.888 | 0.427 | 0.35 | 0.394 | 0.511 | – | 0.148 | 0.699 | 0.518 | 0.537 | 0.279
LOU-NH91 | 0.95 | 0.991 | 1.11 | 1.22 | 0.532 | 0.465 | 0.559 | 0.559 | 0.723 | 0.764 | 0.644 | 0.472 | 0.466 | 0.854 | 1.04 | 1.14 | 1.52
NCI-H2085 | 0.872 | 0.973 | 1.11 | 0.781 | 1 | 1.12 | 1.08 | 1.17 | 0.83 | 0.892 | 0.872 | 0.632 | 0.379 | 0.907 | 0.959 | 0.915 | 0.918
COR-L23 | 0.993 | 1.01 | 1.14 | 0.282 | 1.01 | 0.973 | 0.753 | 0.212 | 0.173 | 0.218 | 0.164 | 0.15 | 0.113 | 0.964 | 0.959 | 0.942 | 0.189
BEN | 0.513 | 0.722 | 0.735 | 0.773 | 0.805 | 0.796 | 1.04 | 1.12 | 0.522 | 0.478 | 0.499 | 0.569 | 0.543 | 0.923 | 0.938 | 0.951 | 1.22
NCI-H322M | 0.964 | 1.13 | 0.886 | 0.478 | 1.24 | 1.37 | 1.04 | 0.625 | 0.496 | 0.465 | 0.489 | 0.343 | 0.283 | 0.995 | 1.03 | 0.926 | 0.925
NCI-H596 | 0.864 | 0.965 | 0.819 | 0.325 | 1.05 | 1.02 | 0.998 | 0.788 | 0.868 | 1.01 | 1.05 | 0.513 | 0.267 | 1.06 | 1.15 | 1.19 | 0.477
